Experimental data as given in patent US12595269B2, “Morpholine-like monoamine releasers” (Solvonis Therapeutics Ireland Holdings Limited, priority 2022, dated 2026).

Test system: MDCKII cells
Test: Apparent permeability (Papp AB) in MDCKII cells
Assay type: in vitro ADME, Canine
Conditions: MDCKII cells, pH 7.4
Method: Methods and Procedure: This study was conducted in compliance with previously described procedures to assure data integrity and adherence to GLP regulations. The experiments described herein were designed to evaluate the apparent permeability (Papp) of test compounds at pH 7.4. Additionally, the MDCKII-MDR1 cell line (Madin-Darby Canine Kidney clone II cell line heterologously expressing the human P-glycoprotein transporter) and mock cell line MDCKII were used to determine whether a compound acted as a P-gp substrate, in the absence and in the presence of the potent P-gp inhibitor. Test control items (digoxin, metoprolol, and atenolol) and control P-gp inhibitor (GF120918) stock solution were prepared in DMSO. Bidirectional assays (Apical to Basolateral [AB] and Basolateral to Apical [BA]) were run, in both the absence and presence of P-gp inhibitor GF120918 in MDCKII-MDR1 and mock cell line MDCKII, using as transport buffer HBSSH at a pH of 7.4 (n=3).
Compounds were tested at a single concentration (i.e. at 3 or 10 μM) at one time point (i.e. 60 min). Alternative concentrations or time-points may also be investigated. As reference compounds, digoxin (P-gp substrate), atenolol (low permeable compound) and metoprolol (high permeable compound) were included at a single concentration (e.g., 10 or 25 μM) and at single time point (e.g., 60 min). Digoxin transport was evaluated in two directions (apical-to-basolateral [AB] and basolateral-to-apical [BA]) in the absence and presence of GF120918 or in mock cells, MDCKII (n=3). Atenolol and metoprolol were only tested in the AB direction in absence of GF120918 or in mock cells, MDCKII (n=3). The integrity of the cell monolayer was evaluated after the permeability experiment using the paracellular permeability marker Lucifer yellow (LY) in the apical to basolateral direction in each well.
MDCKII or MDCKII-MDRI cells cultivated using DMEM (high glucose, GlutaMAX™ supplemented with pyruvate, 10% FBS HI and Pen/Strep) and seeded onto microporous PET (Polyethylene Terephthalate) membranes in HTS 96-Multiwell Insert plates at density of ˜175,000-245,000 cells/cm^2 (25000-35000 cells/well; 50 μL/well) in DMEM medium and incubated for 3-4 days at 37° C.-5% CO2. Medium was changed a day before the experiment.
Stock solutions of test items were prepared in DMSO at a concentration of 5 or 10 mM and stored at −20° C. until use. The potent P-gp inhibitor, GF120918 (stock solution 10 mM) and the reference controls digoxin, atenolol, metoprolol (stock solutions 3 or 10 mM) were prepared in DMSO and stored at −20° C. until use.
Donor working solutions of test items and reference controls will be prepared at a concentration of 10 or 25 μM, diluting the stock solutions in HBSSH. Receiver working solutions contained transport buffer only. […]
MDCKII and MDCKII-MDR1 cells were preincubated (37° C., 15 to 30 minutes) in receiver working solutions containing transport buffer on apical (A) and basolateral (B) sides. Following pre-incubation, test items and control items (digoxin) transport were measured in two directions (apical to basolateral [AB]) and basolateral to apical [BA]), and these directions were performed in triplicate sets of wells, in both the absence and presence of […] GF120918 or mock MDCKII cells. […] Transport of permeability reference controls, atenolol and metoprolol, were measured in one direction (apical to basolateral [AB]) (n=3). […]

CNC(C)Cc1ccc2c(c1)OCO2 (stereo not shown) [MDMA, reference compound]
Permeability Classification: high permeability
